Assay results taken from US5821230A, “GnRH antagonist decapeptides” (Ferring BV, priority 1997, dated 1998).
One block for each compound: values may come before it. *1 amine or outer side, *2 acyl side, *3 side chain or, on linkers, in order; H or OH if unused. Where a SMILES comes first, the peptide text is derived from it. Side-chain parts run from the residue outwards. [ ]: non-standard residue; d: D form. dPhe(4-NH2) = Nc1ccc(C[C@@H](N)C(=O)O)cc1; dPhe(4-Cl) = N[C@H](Cc1ccc(Cl)cc1)C(=O)O; Phe(4-NH2) = Nc1ccc(C[C@H](N)C(=O)O)cc1; d2Nal = N[C@H](Cc1ccc2ccccc2c1)C(=O)O; Lys(iPr) = CC(C)NCCCC[C@H](N)C(=O)O; dDap = NC[C@@H](N)C(=O)O; CO = O=C([*:1])[*:2]

Tests used:
[1] = examination of injected rats for tolerance and gelling at the point of injection; assay type: in vivo; conditions: 50 μg per rat sc
[2] = hydrophilicity by RP-HPLC retention time, TEAP pH 7.0 gradient; assay type: physicochemical; conditions: 40% to 70% Buffer B over 30 minutes
Experimental: Hydrophilicity is tested by measuring retention time using RP-HPLC with a gradient of 40% Buffer B to 70% Buffer B over 30 minutes, with Buffer A being TEAP pH 7.0 and Buffer B being 70% CH3 CN and 30% Buffer A at pH 7.0.

LH secretion = assay: in vivo suppression of circulating LH levels in castrated male Sprague-Dawley rats treated subcutaneously; design: species or system rat; conditions: for in vivo suppression of LH secretion compared with a reference peptide: dosage not printed at the place; for suppression of LH compared with a reference peptide: standard in vivo rat test as in Example 1
Experimental: The peptide is hereinafter referred to as Peptide No. 1 and is assayed in vivo to determine its effectiveness to suppress secretion of LH in rats. Measurement of circulating LH levels in castrated male Sprague-Dawley rats treated subcutaneously with the peptide is carried out as reported in C. Rivier et al. Biol. Reproduc., 1983. 29, 374-378. The peptides are first dissolved at a concentration of 1.0 or 10 mg/ml in bacteriostatic water and then further diluted in 0.04M phosphate buffer containing 0.1% BSA. Subsequent dilutions are made in phosphate buffer. The peptides are injected sc, and blood samples (300 μl) are collected under metotane anesthesia. Sera (50 […]) are tested for LH levels in duplicate using reagents provided by the National Pituitary and Hormone Distribution Program of the NIDDK. […] However, 96 hours following injection, the LH levels are only about 75% of those of the Acyline-injected rats.

[3] = dosage of 50 micrograms per rat sc

Compound: CNC(=O)NC[C@@H](NC(=O)[C@@H](Cc1ccc(Cl)cc1)NC(=O)[C@@H](Cc1ccc2ccccc2c1)NC(C)=O)C(=O)N[C@@H](CO)C(=O)N[C@@H](Cc1ccc(NC(C)=O)cc1)C(=O)N[C@H](Cc1ccc(NC(C)=O)cc1)C(=O)N[C@@H](CC(C)C)C(=O)N[C@@H](CCCCNC(C)C)C(=O)N1CCC[C@H]1C(=O)N[C@H](C)C(N)=O [Peptide No. 1, Ac-D-2Nal-(4Cl)D-Phe-D-Dpr(methylcarbamoyl)-Ser-4Aph (acetyl)-D-4Aph(acetyl)-Leu-Lys(isopropyl)-Pro-D-Ala-NH2] (Ac-[d2Nal][dPhe(4-Cl)][dDap]([CO-NHMe])S[Phe(4-NH2)](Ac)[dPhe(4-NH2)](Ac)L[Lys(iPr)]P[dA]-NH2)
gelling at the point of injection [1]: no significant gelling at the point of injection being detectable
tolerance of the peptide in injected rats [1]: very well tolerated

Compound: Ac-β-D-2Nal-D-4Cpa-D-Dpr(methylcarbamoyl)-Ser-4Aph(Hor)-D-Aph(Hor)-Leu-Lys(isopropyl)-Pro-D-Ala-NH2 [Example 5E]
hydrophilicity compared with a reference peptide [2]: more hydrophilic than Acyline
duration of action, as classed in words (LH secretion; [3]): long-acting
suppression of LH compared with a reference peptide (LH secretion; [3]): substantially as active as Acyline in suppressing LH level at 1, 2 and 3 days

Compound: Ac-β-D-2Nal-D-4Cpa-Gln-Ser-4Aph(hydroorotyl)-D-4Amf(methylcarbamoyl)- Leu-Lys(isopropyl)-Pro-D-Ala-NH2 [Example 8F]
hydrophilicity compared with a reference peptide [2]: more hydrophilic than Acyline
suppression of LH compared with a reference peptide (LH secretion; [3]): substantially as effective as Acyline for 3 days

Second part, led by results:

hydrophilicity compared with a reference peptide [2]: more hydrophilic than Antide
Compound: Ac-D-2Nal-D-4Cpa-D-Dpr(methylcarbamoyl)-Ser-4Aph(Gab)(atz)-D-4Aph(Gab)(atz)-Leu-ILys-Pro-D-Ala-NH2 [Peptide No. 5A]
in vivo suppression of LH secretion compared with a reference peptide (LH secretion): longer duration of in vivo suppression of LH secretion than Acyline

hydrophilicity compared with a reference peptide [2]: more hydrophilic than Antide
Compound: Ac-D-2Nal-D-4Cpa-D-Dpr(methylcarbamoyl)-Ser-4Aph(β-Ala)(atz)-D-4Aph(β-Ala)(atz)-Leu-ILys-Pro-D-Ala-NH2 [Peptide No. 5B]
in vivo suppression of LH secretion compared with a reference peptide (LH secretion): longer duration of in vivo suppression of LH secretion than Antide
